We go through 16 molecules from patent publication US20190233409A1, “SUBSTITUTED 2,3,4,5-TETRAHYDRO-1H-PYRIDO[4,3-B]INDOLES, METHODS FOR USE THEREOF” (priority 2017, published 2019).

Where a name gives a salt, the structure may show the parent alone.

In assay [1] the test system is BALB/c male mice. The experiment in a line: Passive Avoidance of Mice in a Shuttle Chamber, memory disturbed by scopolamine (Example 7). The conditions noted are these: scopolamine 0.3 mg/kg, injected 30 minutes before training. In kind it is in vivo. As for the experimental part:
Example 7. […] A shuttle chamber (Ugo Basile, Italy) consisted of two sections was used. […] The sections were connected via a hole which could be shut with a vertical door. The floor was made of transverse metal bars on which DC current impulses could be fed. Experiments were carried out on aged male mice of line BALB/c weighing 20-24 grams. […] Each group consisted of at least 8 animals. The animals were placed in the light section, and the latent period of the first entry into the dark chamber was registered. Then the vertical door was closed and the animal was punished by 0.6 mA DC current for 3 seconds. After that the animal was carried back to its living cell. In 22-24 hours the same animal was placed in the light section of the shuttle chamber once again and the latent period before its entry into the dark section, the total time of its stay in the light section and the number of entries into the dark section were registered. Each observation lasted for 5 minutes. The experiment was carried out during the day time in an isolated laboratory using white noise at a level of about 70 decibel above the human hearing threshold. Scopolamine causes the disturbance of training (memory loss) which results in […]. The fact that 5-HT6 receptor antagonists can improve the learning ability that has been disturbed by scopolamine is regarded as evidence for their nootropic effect.

A further assay has as its system SHK male mice. The assay is described as follows: Recognition of New Objects by Mice Under Scopolamine and MK-801. In kind it is in vivo. The conditions noted are these: scopolamine 1 mg/kg and MK-801 0.2 mg/kg. As for the experimental part: The experiments were carried out in a closed cross shaped labyrinth which consisted of 4 peripheral sections connected with the central chamber via a 7×7 cm hole. The labyrinth was made of black plastic and its sections were of 14×14×14 cm size. The top cover of the labyrinth was transparent.
A mouse was placed in the central section of the labyrinth and allowed to investigate the environment. A mouse was considered to have entered a section once all of its four paws were inside the chamber. A test was considered to be completed when the mouse had moved 12 times between the sections, having made a total of 13 visits. The floor of the labyrinth was cleaned after each animal.
With each mouse the test was carried out twice with 1 hour interval.
During the first test, each section of the labyrinth contained a circular plastic cup of 3 cm height and 7 cm diameter. During the second test the cover in each of the two opposing sections was replaced by a conical glass bulb of 7 cm height and 4 cm across the bottom. The time that the mice spent in each section of the labyrinth was registered and the index of new object recognition was calculated as the ratio of the time spent in the sections with the bulbs to the time spent in all sections of the labyrinth. If no preference is given to the sections with new objects the index is 0.5.
When new objects appear the mice spend more time in the section containing them that results in an increased recognition index. Scopolamine (1 mg/kg) and MK-801 (0.2 mg/kg) disturbed learning (memory) that leads to lowering of the recognition index.

In assay [2] the test system is calcium canals regulated by the intracellular calcium depot. The experiment in a line: Histamine-induced calcium stream in SK-N-SH cells, Phase 2 (lowering of intracellular calcium concentration). In kind it is cell-based. The conditions noted are these: Homo sapiens, 10 μM histamine, Fura 2 AM, Phase 2: discharge of intraplasmatic calcium.
For assay [3], the system named is BALB/c male mice. The experiment in a line: Training Mice in the Morris Water labyrinth, scopolamine. Type of assay: in vivo. The conditions noted are these: scopolamine 0.6 mg/kg; 1.2.1(5)HCl 0.1 mg/kg, 1.2.1(1)HCl 1 mg/kg, tacrine 3 mg/kg. The protocol:
A circular pool of 100 cm diameter and of 30 cm sides was used. It was filled with water at 20-22° C. A circular ceramic platform of 14 cm height was placed in the pool. The behavior of the animals was registered using an automated computer video system in addition with software package of movement analyzer Any-maze (Stoelting Colo., US). The experiments were carried out on aged male mice of BALB/c line weighing 20-24 grams. Before the experiments mice fit for learning were selected. This was done by placing the platform 1 cm above the water level and putting an animal on the platform for 20 seconds. Then the mouse was put in the water on the opposite side of the pool and allowed to find the platform and climb onto it for 60 seconds, where it was left for additional 20 seconds. After that the mouse was repeatedly immersed in the water on the opposite side of the pool and allowed to search for the platform. If it failed in finding the platform within 60 seconds the experimentator helped it to find the platform and climb onto it. If the mice couldn't find the platform itself in two consecutive attempts it was excluded from the experiment. During the next two days the platform was placed 0.5 centimeters lower the water level. Every day the mice were given four attempts for finding the platform within 60 seconds. The time interval between the attempts was 20 seconds, during which the mice stayed on the platform. Every day before the first attempt the mice was placed on the platform for 20 seconds. The time needed for finding and climbing the platform was registered. The animals were sunk in water in two different places on the side of the pool opposite to the platform. […] The animals of the control group were injected with physiological solution. At least 8 animals were used in each group. On the third day the platform was removed and each animal was placed in the pool once for a period of 60 seconds. The time each mouse spent in the area where the platform had been located during the previous days was registered. […]

The test system of assay [4] is BALB/c male mice. The assay is described as follows: Passive Avoidance of Mice in a Shuttle Chamber, scopolamine or MK-801 (Example 8). The conditions noted are these: scopolamine 0.3 mg/kg or MK-801 0.1 mg/kg. Type of assay: in vivo. As for the experimental part:
Example 7. […] A shuttle chamber (Ugo Basile, Italy) consisted of two sections was used. […] The sections were connected via a hole which could be shut with a vertical door. The floor was made of transverse metal bars on which DC current impulses could be fed. Experiments were carried out on aged male mice of line BALB/c weighing 20-24 grams.
On the first day of the experiment 30 minutes before training the mice were injected intraintestinally with physiological solution of scopolamine (0.3 mg/kg) or scopolamine in combination with antagonists of 5-HT6 receptors 1.2.1(2)HCl, 1.2.1(4)HCl or 1.2.1(5)HCl. Each group consisted of at least 8 animals. The animals were placed in the light section, and the latent period of the first entry into the dark chamber was registered. Then the vertical door was closed and the animal was punished by 0.6 mA DC current for 3 seconds. After that the animal was carried back to its living cell. In 22-24 hours the same animal was placed in the light section of the shuttle chamber once again and the latent period before its entry into the dark section, the total time of its stay in the light section and the number of entries into the dark section were registered. Each observation lasted for 5 minutes.
The experiment was carried out in the same way as in example 7. On the first day 30 minutes before training the mice were injected intra-intestinally with a physiological solution of scopolamine (0.3 mg/kg) or MK-801(0.1 mg/kg).

Assay [5] relates to BALB/c male mice. The experiment in a line: Mice Behavior an Elevated Cross Shaped Labyrinth. Type of assay: in vivo. The conditions noted are these: preference index for open sections, number of defecations. The source says: The length of each section in the labyrinth is 30 cm, the width is 5 cm, the height of the walls is 15 cm. Two opposite sections are closed by transparent walls on the sides and on the butt ends, the other two sections are lit and opened. A mouse was placed in the center of the labyrinth and for the next five minutes the number of entries the open and closed sections and the time spent in each type of section was registered. […] The animals usually avoid the open sections (the preference index is between 0.2 and 0.3).

Usually EC50 stands for the midpoint of the concentration-response curve. On to `Cc1ccc2c(c1)c1c(n2CCc2ccc(C)nc2)CCN(C)C1.Cl` [1.2.1(5)HCl, 2,8-dimethyl-5-[2-(6-methylpyridin-3-yl)ethyl]-2,3,4,5-tetrahydro-1H-pyrido[4,3-b]indole hydrochloride], for which the “nootropic action (passive avoidance, FIGS. 2-4)” value in the assay with BALB/c male mice [1] was “exhibit a nootropic action”. For the same molecule, the “nootropic action (new object recognition, FIG. 13-14)” value in the assay with SHK male mice is on record as “nootropic action”. In addition, the EC50 in assay [2] stood at 1.58 µM. Further, in the assay on BALB/c male mice [3], the “improvement of mice's training (Morris water labyrinth, FIGS. 11-12)” value (shortened to “improvement of mice's training”) is given as “statistically significant improvement of mice's training”. The “nootropic action (passive avoidance, FIGS. 5-10)” value in the assay with BALB/c male mice [4] was “exhibit a nootropic action”. The “tranquilizing action (elevated cross shaped labyrinth, figure 19-21)” value (“tranquilizing action” below) with BALB/c male mice [5] is listed as “exhibit a tranquilizing action”.
Consider `CC12CC3CC(C)(C1)CC(N)(C3)C2` [memantine], for which, in the assay on SHK male mice, the “nootropic action (new object recognition, FIG. 13-14)” value is reported as “nootropic action”.
As for `Cc1ccc2c(c1)c1c(n2CCc2ccncc2)CCN(C)C1.Cl` [1.2.1(2)HCl, 2,8-dimethyl-5-[2-(pyridin-4-yl)ethyl]-2,3,4,5-tetrahydro-1H-pyrido[4,3-b]indole hydrochloride], the “nootropic action (passive avoidance, FIGS. 2-4)” value in the assay with BALB/c male mice [1] was “exhibit a nootropic action which is the most prominent”. The EC50 in assay [2] was found to be 3.98 µM.
With `O=S(=O)(c1ccccc1)c1cnc2c(N3CCNCC3)cccc2c1` [SB-742457], the “nootropic action (new object recognition, FIG. 13-14)” value in the assay with SHK male mice is recorded as “nootropic action”. Further, the “nootropic action (passive avoidance, FIGS. 5-10)” value in the assay with BALB/c male mice [4] was “inactive”.
With `Nc1c2c(nc3ccccc13)CCCC2` [tacrine], the “improvement of mice's training” value with BALB/c male mice [3] is given as “statistically significant improvement of mice's training”.
With `O=C1CC2(CCCC2)CC(=O)N1CCCCN1CCN(c2ncccn2)CC1` [Buspiron], the “tranquilizing action” value with BALB/c male mice [5] is recorded as “exhibit a tranquilizing action”.
Regarding `Cc1ccc2c(c1)c1c(n2CCc2ccccn2)CCN(C)C1.Cl` [1.2.1(4)HCl, 2,8-dimethyl-5-[2-(pyridin-2-yl)ethyl]-2,3,4,5-tetrahydro-1H-pyrido[4,3-b]indole hydrochloride], the “nootropic action (passive avoidance, FIGS. 2-4)” value in the assay with BALB/c male mice [1] was “exhibit a nootropic action which is the most prominent”. For the same molecule, the EC50 in assay [2] came to 10 µM.
For the molecule `Cc1ccc2c(c1)c1c(n2CCc2ccccc2)CCN(C)C1.Cl` [1.2.1(1)HCl, 2,8-dimethyl-5-(2-phenylethyl)-2,3,4,5-tetrahydro-1H-pyrido[4,3-b]indole hydrochloride], the “nootropic action (new object recognition, FIG. 13-14)” value with SHK male mice is listed as “nootropic action, the level of which is the most prominent”. In addition, the EC50 in assay [2] was found to be 0.15 µM. Further, in the assay with BALB/c male mice [3], the “improvement of mice's training” value is “statistically significant improvement of mice's training”. Also, the “nootropic action (passive avoidance, FIGS. 5-10)” value with BALB/c male mice [4] is “highest activity”. Further, the “tranquilizing action” value in the assay on BALB/c male mice [5] is given as “exhibit a tranquilizing action, which is the most prominent”.
On to `Cc1ccc2c(c1)c1c(n2/C=C\c2ccccc2)CCN(C)C1` [1.1.1(3), cis-2,8-dimethyl-5-(2-phenylethenyl)-2,3,4,5-tetrahydro-1H-pyrido[4,3-b]indole], for which the concentration for a half-maximal effect (EC50) in assay [2] amounted to 0.154 µM.
Still for that read-out and setting: next, `CN1CCc2c(c3cc(F)ccc3n2/C=C\c2cccc(F)c2)C1` [1.1.1(6), cis-2-methyl-5-[2-(3-fluorophenyl)ethenyl]-8-fluoro-2,3,4,5-tetrahydro-1H-pyrido[4,3-b]indole]: 0.19 µM.
`CN1CCc2c(c3cc(F)ccc3n2C#Cc2cccnc2)C1` [1.3.1(3), 2-methyl-5-(pyridin-3-ylethynyl)-8-fluoro-2,3,4,5-tetrahydro-1H-pyrido[4,3-b]indole]: the EC50 in assay [2] is more than 10 µM.
In the case of `Cc1ccc2c(c1)c1c(n2CCc2cccnc2)CCN(C)C1` [1.2.1(3)HCl, 2,8-dimethyl-5-[2-(pyridin-3-yl)ethyl]-2,3,4,5-tetrahydro-1H-pyrido[4,3-b]indole hydrochloride], the EC50 in assay [2] was 0.579 µM.
With `CN1CCc2c(c3cc(F)ccc3n2/C=C\c2cccnc2)C1` [1.1.1(2), cis-2-methyl-5-[2-(pyridin-3-yl)ethenyl]-8-fluoro-2,3,4,5-tetrahydro-1H-pyrido[4,3-b]indole], the EC50 in assay [2] was more than 10 µM.
Still for that read-out and setting: next, `CN1CCc2c(c3cc(F)ccc3n2/C=C\c2ccccc2)C1` [1.1.1(1), cis-2-methyl-5-(2-phenylethenyl)-8-fluoro-2,3,4,5-tetrahydro-1H-pyrido[4,3-b]indole]: 0.15 µM; `CN1CCc2c(c3ccccc3n2CCc2ccncc2)C1` [1.2(2)HCl, 2-methyl-5-[2-(pyridin-4-yl)ethyl]-2,3,4,5-tetrahydro-1H-pyrido[4,3-b]indole hydrochloride]: 0.5 µM.
As to `CN1CCc2c(c3ccccc3n2/C=C\c2cccnc2)C1` [1.1(4), cis-2-methyl-5-[2-(pyridin-3-yl)ethenyl]-2,3,4,5-tetrahydro-1H-pyrido[4,3-b]indole], in assay [2], the EC50 was more than 10 µM.
